# Experimental data: patent publication US20260083864A1, “CONTRAST AGENTS FOR USE IN DIAGNOSTIC COMPUTED TOMOGRAPHY IMAGING” (Bayer Aktiengesellschaft, priority 2022, published 2026)
# Tests used:
# [1] = Water solubility in aqueous buffer; settings: aqueous buffer 10 mM Tris-HCl, pH 7.4, 20° C.
# Method: The solid compounds were added stepwise to the buffer solution. More substance is added once all the suspended material is dissolved until an equilibrium between undissolved and dissolved substance is reached. The suspension was mixed using a shaker (Heidolph Reax 2000) and treated 5 min in an ultrasound bath (Bandelin, Sonorex Super RK255H).
# [2] = Complex stability (transmetallation) against Zn2+ in phosphate buffer; settings: 72 hours, 2.5 mM Zn^2+, 26 mM phosphate buffer, 37° C., pH 7.4
# From the text: If test compounds are instable under these conditions, transmetallation during this test would lead to the formation of the Zn^2+ complex of the test item, while Gd^3+ is released and precipitated as highly insoluble GdPO4.
# [3] = Relaxivity measurements at 1.41 T in water; format: physicochemical; settings: 37° C., normalized to Gd
# Summary of the method: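 T1 by inversion recovery and T2 by CPMG at 1.41 T (60 MHz), 37° C, relaxation delay ≥5×T1. Three Gd concentrations between 0.05 and 2 mM; relaxivities derived from measured relaxation rates in water.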
# [4] = Relaxivity measurements at 1.41 T in human plasma; format: physicochemical; settings: 37° C., normalized to Gd
# Summary of the method: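 T1 determined by inversion recovery (8 inversion-time steps) and T2 by CPMG sequence, both with relaxation delay ≥5×T1. Each relaxivity used three Gd concentrations between 0.05 and 2 mM. Relaxivities were derived from relaxation rates measured in water and plasma.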
# OATP1B1 = target: T1, OATP1B1 (Homo sapiens, UniProt Q9Y6L6); experiment: Uptake into stable transfected OATP1B1 HEK 293 cells; format: cell-based; settings: for Uptake into OATP1B1-HEK 293 cells: 40 min incubation, relative to RC1 (Gd-EOB-DTPA); for Inhibition Rifampicine: uptake into OATP1B1-HEK 293 cells
# T1 sequence (Q9Y6L6 1-691): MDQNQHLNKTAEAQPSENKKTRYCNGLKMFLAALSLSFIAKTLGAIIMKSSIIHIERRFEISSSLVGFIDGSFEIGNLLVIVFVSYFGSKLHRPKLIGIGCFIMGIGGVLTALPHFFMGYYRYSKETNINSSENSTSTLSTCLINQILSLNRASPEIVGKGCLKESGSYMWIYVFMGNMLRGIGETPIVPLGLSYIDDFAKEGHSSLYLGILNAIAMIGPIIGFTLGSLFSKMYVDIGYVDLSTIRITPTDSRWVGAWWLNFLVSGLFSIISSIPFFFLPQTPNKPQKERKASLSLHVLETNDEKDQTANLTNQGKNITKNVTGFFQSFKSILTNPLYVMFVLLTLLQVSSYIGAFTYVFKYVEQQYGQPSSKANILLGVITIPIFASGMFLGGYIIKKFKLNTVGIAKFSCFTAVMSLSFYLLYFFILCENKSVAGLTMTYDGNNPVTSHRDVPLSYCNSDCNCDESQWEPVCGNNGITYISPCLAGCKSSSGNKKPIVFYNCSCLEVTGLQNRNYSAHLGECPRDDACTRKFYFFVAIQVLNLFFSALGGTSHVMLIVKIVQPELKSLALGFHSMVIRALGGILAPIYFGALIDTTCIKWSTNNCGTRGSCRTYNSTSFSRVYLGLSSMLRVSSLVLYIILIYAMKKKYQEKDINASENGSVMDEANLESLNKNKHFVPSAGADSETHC
# Summary of the method: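 Stably transfected OATP1B1 HEK293 cells incubated 40 min without shaking with test item at 100 µM final in transport buffer, in triplicate. Cells then washed with cold PBS; gadoxetate run on the same plate as reference.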
# OATP1B3 = target: T2, OATP1B3 (Homo sapiens, UniProt Q9NPD5); experiment: Uptake into stable transfected OATP1B3 HEK 293 cells; format: cell-based; settings: for Uptake into OATP1B3-HEK 293 cells: 40 min incubation, relative to RC1 (Gd-EOB-DTPA); for Inhibition Rifampicine: uptake into OATP1B3-HEK 293 cells
# T2 sequence (Q9NPD5 1-702): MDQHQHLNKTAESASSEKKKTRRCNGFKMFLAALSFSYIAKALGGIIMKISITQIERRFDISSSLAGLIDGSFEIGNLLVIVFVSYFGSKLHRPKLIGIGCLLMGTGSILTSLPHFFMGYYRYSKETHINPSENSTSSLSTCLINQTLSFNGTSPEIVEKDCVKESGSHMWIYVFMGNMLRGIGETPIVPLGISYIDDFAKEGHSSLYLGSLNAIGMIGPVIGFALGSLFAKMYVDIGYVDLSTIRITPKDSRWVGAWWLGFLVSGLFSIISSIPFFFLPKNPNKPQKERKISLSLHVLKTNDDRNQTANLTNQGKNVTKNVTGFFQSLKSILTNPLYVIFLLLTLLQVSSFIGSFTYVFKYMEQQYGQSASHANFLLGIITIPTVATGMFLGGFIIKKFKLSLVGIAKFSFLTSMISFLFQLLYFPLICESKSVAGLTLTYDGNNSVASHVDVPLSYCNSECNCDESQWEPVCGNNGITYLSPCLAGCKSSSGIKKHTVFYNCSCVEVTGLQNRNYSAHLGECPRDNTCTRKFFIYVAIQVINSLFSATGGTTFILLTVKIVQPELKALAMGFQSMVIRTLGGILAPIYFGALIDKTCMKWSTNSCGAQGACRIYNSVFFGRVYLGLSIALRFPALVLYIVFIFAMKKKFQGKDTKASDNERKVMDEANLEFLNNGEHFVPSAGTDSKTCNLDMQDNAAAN
# Summary of the method: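 HEK 293 cells stably transfected with human OATP1B3 were incubated for 40 min with test items at 100 μM final in transport buffer, in triplicate, then washed with cold PBS. Gadoxetate (Gd-EOB-DTPA) served as the reference standard on the same plate.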
# [5] = Partition coefficient (log P butanol/buffer); format: physicochemical; settings: 1-butanol / 50 mM Tris-HCl, pH 7.4, room temperature
# [6] = system: freshly isolated rat hepatocytes; experiment: Uptake into freshly isolated rat hepatocytes; settings: for Uptake rat hepatocytes: 100 μmol Gd/L, 10 min, 37° C., relative to RC1 (Gd-EOB-DTPA); for Inhibition Rifampicine: rat hepatocyte uptake, test item and Rifampicine 1:1, each 100 μM
Compound,Solubility [1] [mM],Transmetallation stability [2] [%],r1 water [3] [L/mmol/s],r1 human plasma [4] [L/mmol/s],Uptake into OATP1B1-HEK 293 cells (OATP1B1),Inhibition Rifampicine (OATP1B1) [% inhibition],Uptake into OATP1B3-HEK 293 cells (OATP1B3),Inhibition Rifampicine (OATP1B3) [% inhibition],Log P (partition coefficient butanol/buffer) [5],Uptake rat hepatocytes [6],Inhibition Rifampicine [6] [% inhibition]
"CCOCCOc1ccc(CC(C(=O)O)N2CCN(CC(=O)[O-])CCN(C(CC)C(=O)[O-])CCN(CC(=O)[O-])CC2)cc1.[Gd+3] (single isomer, unassigned) [Example 8, gadolinium 2-[7-{1-carboxy-2-[4-(2-ethoxyethoxy)phenyl]ethyl}-4,10-bis(carboxylatomethyl)-1,4,7,10-tetraazacyclododecan-1-yl]butanoate]",117,102,4.5,7.2,271 % of RC1,90,90 % of RC1,99,−1.04,83 % of RC1,98
"CCOCCOCCOc1ccc(CCC[C@@H](C(=O)O)N2CCN(CC(=O)[O-])CCN(CC(=O)[O-])CCN(CC(=O)[O-])CC2)cc1.[Gd+3] [Example 26, gadolinium 2,2′,2″-{10-[(1S)-1-carboxy-4-{4-[2-(2-ethoxyethoxy)ethoxy]phenyl}butyl]-1,4,7,10-tetraazacyclododecane-1,4,7-triyl}triacetate]",>62,99,4.5,7.5,386 % of RC1,73,64 % of RC1,93,−1.01,77 % of RC1,97
"CCOCCOc1ccc(CC(C(=O)O)N2CCN(CC(=O)[O-])CCN(C(COC)C(=O)[O-])CCN(CC(=O)[O-])CC2)cc1.[Gd+3] (stereo not drawn) [Example 38, gadolinium 2-[7-{1-carboxy-2-[4-(2-ethoxyethoxy)phenyl]ethyl}-4,10-bis(carboxylatomethyl)-1,4,7,10-tetraazacyclododecan-1-yl]-3-methoxypropanoate]",>103,97,5.6,7.5,137 % of RC1,65,24 % of RC1,94,−1.41,62 % of RC1,94
"O=C([O-])CN1CCN(CC(=O)[O-])CCN(C(Cc2ccc(OCC(F)(F)C(F)F)cc2)C(=O)O)CCN(CC(=O)[O-])CC1.[Gd+3] (stereo not drawn) [Example 46, gadolinium 2,2′,2″-(10-{1-carboxy-2-[4-(2,2,3,3-tetrafluoropropoxy)phenyl]ethyl}-1,4,7,10-tetraazacyclododecane-1,4,7-triyl)triacetate]",>263,101,3.5,10.8,356 % of RC1,95,43 % of RC1,97,−0.57,106 % of RC1,90
"CCOCCOCCOc1ccc(CCCC(C(=O)O)N2CCN(CC(=O)[O-])CCN(CC(=O)[O-])CCN(CC(=O)[O-])CC2)cc1.[Gd+3] (stereo not drawn) [Example 25, gadolinium 2,2′,2″-{10-[1-carboxy-4-{4-[2-(2-ethoxyethoxy)ethoxy]phenyl}butyl]-1,4,7,10-tetraazacyclododecane-1,4,7-triyl}triacetate]",306,103,4.6,7.5,30 % of RC1,75,58 % of RC1,93,−1.00,82 % of RC1,96
"CCOCCOCCOc1ccc(CC(C(=O)[O-])N2CCN(CC(=O)[O-])CCN(C(CC)C(=O)O)CCN(CC(=O)[O-])CC2)cc1.[Gd+3] (stereo not drawn) [Example 43, gadolinium-2-{4,10-bis(carboxylatomethyl)-7-[1-carboxypropyl]-1,4,7,10-tetraazacyclododecan-1-yl}-3-{4-[2-(2-ethoxyethoxy)ethoxy]phenyl}propanoate]",>209,102,4.8,6.9,122 % of RC1,62,111 % of RC1,99,−1.19,90 % of RC1,97
